The source of these data is patent US20230265151A1, “GIP/GLP1 CO-AGONIST COMPOUNDS” (priority 2020, published 2023).

What all share (assay type): cell-based
One experiment deals with T1, hGIPR (Homo sapiens, UniProt P48546).
T1 construct: expressed in transfected cells
T1 sequence (P48546 22-466): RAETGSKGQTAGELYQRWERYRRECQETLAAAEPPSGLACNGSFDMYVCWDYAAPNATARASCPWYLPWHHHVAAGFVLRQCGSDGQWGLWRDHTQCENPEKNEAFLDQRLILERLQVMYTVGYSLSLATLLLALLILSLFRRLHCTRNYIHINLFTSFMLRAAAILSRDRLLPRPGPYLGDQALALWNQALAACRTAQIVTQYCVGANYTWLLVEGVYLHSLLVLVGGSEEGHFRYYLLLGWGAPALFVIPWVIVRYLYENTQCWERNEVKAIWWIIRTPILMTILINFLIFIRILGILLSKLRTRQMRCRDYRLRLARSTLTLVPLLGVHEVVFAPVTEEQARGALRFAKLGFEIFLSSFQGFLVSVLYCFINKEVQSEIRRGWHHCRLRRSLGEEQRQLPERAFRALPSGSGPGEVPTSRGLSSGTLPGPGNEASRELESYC
As to the kind of experiment: Functional cAMP formation (HTRF) in HEK-293 clonal cells expressing hGIPR, 0.1% bovine casein, without or with 1.0% human serum albumin. Particulars: for Emax: read-out: hGIPR Emax, % ± SEM; for EC50: read-out: hGIPR EC50, nM (SEM, n). Put shortly: (§1)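 Cells were stimulated with peptide for 30 min at 37° C, then intracellular cAMP was measured by competitive HTRF (665/620 nm ratio) and converted to nM using a cAMP standard curve. Relative EC50 and Emax came from four-parameter logistic fits of percent maximal response against peptide concentration.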

For another experiment, the target named is T2, hGCGR (Homo sapiens, UniProt P47871).
T2 construct: expressed in transfected cells
Nature of the experiment: Functional cAMP formation (HTRF) in HEK-293 clonal cells expressing hGCGR, 0.1% bovine casein, without or with 1.0% human serum albumin. Particulars: read-out: hGCGR EC50, nM (SEM, n). Put shortly: as §1

Another experiment deals with hGLP-1R (Homo sapiens, UniProt P43220). Nature of the experiment: Functional cAMP formation (HTRF) in HEK-293 clonal cells expressing hGLP-1R, 0.1% bovine casein, without or with 1.0% human serum albumin. Particulars: for Emax: read-out: hGLP-1R Emax, % ± SEM; for EC50: read-out: hGLP-1R EC50, nM (SEM, n). Set-up: expressed in transfected cells. In outline:
as §1

Where [1] appears, read: HEK293, cAMP, 37° C., 0.1% bovine casein and 1.0% human serum albumin, percent of maximal response to GIP(1-42)NH2.
[2] abbreviates: cAMP, 37° C., 0.1% bovine casein (no human serum albumin), geometric mean.
Setting [3] is: cAMP, 37° C., 0.1% bovine casein and 1.0% human serum albumin, geometric mean (SEM, n).
The mark [4] stands for this setting: 0.1% bovine casein and 1.0% human serum albumin, 37° C., geometric mean.
Where [5] appears, read: HEK293, 0.1% bovine casein and 1.0% human serum albumin, 37° C., percent of maximal response to GIP(1-42)NH2.
Setting [6] is: HEK293, percent of maximal response to GIP(1-42)NH2, 37° C., 0.1% bovine casein, arithmetic mean.
The mark [7] stands for this setting: cAMP, incubated at 37° C., 0.1% bovine casein (no human serum albumin), geometric mean.

Where two headings read alike, the source gives them in different places. *1 amine or outer side, *2 acyl side, *3 side chain or, on linkers, in order; H or OH if unused. Where a SMILES comes first, the peptide text is derived from it. Side-chain parts run from the residue outwards. [ ]: non-standard residue; d: D form. The star is where a group is joined. αMePhe(2-F) = C[C@](N)(Cc1ccccc1F)C(=O)O; γGlu = O=C(O)[C@H](CCC(=O)[*:2])N[*:1]; αMeY = C[C@](N)(Cc1ccc(O)cc1)C(=O)O; αMeL = CC(C)C[C@](C)(N)C(=O)O; Lauroyl = CCCCCCCCCCCC(=O)*; AEEA = NCCOCCOCC(=O)O; Aib = CC(C)(N)C(=O)O A value given as a limit tells only on which side of the number the result lay.

hGLP-1R, sequence (P43220 24-463): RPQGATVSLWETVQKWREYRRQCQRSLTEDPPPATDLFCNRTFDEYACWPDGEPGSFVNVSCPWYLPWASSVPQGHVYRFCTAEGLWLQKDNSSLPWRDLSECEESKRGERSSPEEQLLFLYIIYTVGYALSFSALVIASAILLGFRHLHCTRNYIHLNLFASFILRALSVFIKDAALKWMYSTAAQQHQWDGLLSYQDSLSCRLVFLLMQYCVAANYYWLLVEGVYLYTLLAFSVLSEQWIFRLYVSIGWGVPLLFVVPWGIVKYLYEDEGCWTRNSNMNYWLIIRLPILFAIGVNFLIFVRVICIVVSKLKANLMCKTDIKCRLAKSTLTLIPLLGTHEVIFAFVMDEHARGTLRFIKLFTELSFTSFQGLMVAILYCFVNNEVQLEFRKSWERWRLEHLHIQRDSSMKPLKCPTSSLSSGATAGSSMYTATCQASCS
T2 sequence (P47871 26-477): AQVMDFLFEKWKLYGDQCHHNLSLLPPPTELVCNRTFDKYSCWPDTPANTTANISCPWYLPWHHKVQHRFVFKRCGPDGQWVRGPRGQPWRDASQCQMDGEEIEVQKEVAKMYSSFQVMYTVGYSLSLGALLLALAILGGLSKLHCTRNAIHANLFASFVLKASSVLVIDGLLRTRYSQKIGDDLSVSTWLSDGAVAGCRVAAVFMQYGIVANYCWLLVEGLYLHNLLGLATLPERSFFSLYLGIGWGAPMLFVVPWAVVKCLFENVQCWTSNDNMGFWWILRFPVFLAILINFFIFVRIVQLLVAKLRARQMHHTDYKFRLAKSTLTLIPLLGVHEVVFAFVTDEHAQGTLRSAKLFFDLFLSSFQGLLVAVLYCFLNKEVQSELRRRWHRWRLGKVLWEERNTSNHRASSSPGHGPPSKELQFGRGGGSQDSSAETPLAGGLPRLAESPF

Consider `CC[C@H](C)[C@H](NC(=O)[C@H](CC(C)C)NC(=O)[C@](C)(Cc1ccc(O)cc1)NC(=O)[C@@H](CCC(=O)O)NC(=O)[C@@H](NC(=O)[C@H](Cc1ccccc1)NC(=O)[C@H](CCC(=O)O)NC(=O)C(C)(C)NC(=O)[C@H](CCC(N)=O)NC(=O)[C@H](C)NC(=O)[C@H](CCCCNC(=O)COCCOCCNC(=O)COCCOCCNC(=O)CCCCCCCCCCCCC(=O)O)NC(=O)[C@H](CCCN)NC(=O)[C@H](CC(=O)O)NC(=O)[C@H](CC(C)C)NC(=O)[C@](C)(CC(C)C)NC(=O)[C@@H](NC(=O)C(C)(C)NC(=O)[C@@H](NC(=O)[C@H](CC(=O)O)NC(=O)[C@H](CO)NC(=O)[C@@H](NC(=O)[C@](C)(Cc1ccccc1F)NC(=O)[C@@H](NC(=O)CNC(=O)[C@H](CCC(=O)O)NC(=O)C(C)(C)NC(=O)[C@@H](N)Cc1ccc(O)cc1)[C@@H](C)O)[C@@H](C)O)C(C)C)[C@@H](C)CC)[C@@H](C)CC)C(=O)N[C@@H](CCCCNC(=O)COCCOCCNC(=O)COCCOCCNC(=O)CCCCCCCCCCCCC(=O)O)C(=O)NCC(=O)NCC(=O)N1CCC[C@H]1C(=O)N[C@@H](CO)C(=O)N[C@@H](CO)C(=O)NCC(=O)N[C@@H](C)C(=O)N1CCC[C@H]1C(=O)N1CCC[C@H]1C(=O)N1CCC[C@H]1C(=O)N[C@@H](CO)C(N)=O` [Example 389], for which the Emax on hGIPR (setting [1]) worked out at 82%; at hGIPR (HEK293, cAMP, 37° C., 0.1% bovine casein, percent of maximal response to GIP(1-42)NH2, arithmetic mean), 94.6%; on hGLP-1R (HEK293, cAMP, 37° C., 0.1% bovine casein, percent of maximal response to GLP-1(7-36)NH2, arithmetic mean) it was 92.4%. The EC50 at hGIPR (setting [2]) is 0.0178 nM; on hGIPR (setting [3]), 1.5 nM; at hGCGR (setting [2]), greater than 9950 nM; at hGCGR (setting [3]) it was greater than 9950 nM; on hGLP-1R (setting [2]) it was 0.19 nM.

As for `CCCCCCCCCCCC(=O)N[C@@H](CCC(=O)NCCOCCOCC(=O)NCCOCCOCC(=O)NCCCC[C@H](NC(=O)CNC(=O)[C@H](CC(=O)O)NC(=O)[C@H](CC(C)C)NC(=O)[C@](C)(CC(C)C)NC(=O)[C@@H](NC(=O)C(C)(C)NC(=O)[C@H](CCCCNC(=O)COCCOCCNC(=O)COCCOCCNC(=O)CC[C@H](NC(=O)CCCCCCCCCCC)C(=O)O)NC(=O)[C@H](CC(=O)O)NC(=O)[C@H](CO)NC(=O)[C@@H](NC(=O)[C@](C)(Cc1ccccc1F)NC(=O)[C@@H](NC(=O)CNC(=O)[C@H](CCC(=O)O)NC(=O)C(C)(C)NC(=O)[C@@H](N)Cc1ccc(O)cc1)[C@@H](C)O)[C@@H](C)O)[C@@H](C)CC)C(=O)N[C@@H](C)C(=O)N[C@@H](CCC(N)=O)C(=O)NC(C)(C)C(=O)N[C@@H](CCC(=O)O)C(=O)N[C@@H](Cc1ccccc1)C(=O)N[C@H](C(=O)N[C@H](CCC(=O)O)C(=O)N[C@@](C)(Cc1ccc(O)cc1)C(=O)N[C@@H](CC(C)C)C(=O)N[C@H](C(=O)N[C@@H](CCC(=O)O)C(=O)NCC(=O)NCC(=O)N1CCC[C@H]1C(=O)N[C@@H](CO)C(=O)N[C@@H](CO)C(=O)NCC(=O)N[C@@H](C)C(=O)N1CCC[C@H]1C(=O)N1CCC[C@H]1C(=O)N1CCC[C@H]1C(=O)N[C@@H](CO)C(N)=O)[C@@H](C)CC)[C@@H](C)CC)C(=O)O` [Example 445] (H-Y[Aib]EGT[αMePhe(2-F)]TSDK([AEEA-AEEA-γGlu-Lauroyl])[Aib]I[αMeL]LDGK([AEEA-AEEA-γGlu-Lauroyl])AQ[Aib]EFI[dE][αMeY]LIEGGPSSGAPPPS-NH2; N-terminus assumed), the Emax on hGIPR (setting [1]) was determined as 91.4%; at hGLP-1R (HEK293, cAMP, 37° C., 0.1% bovine casein and 1.0% human serum albumin, percent of maximal response to GLP-1(7-36)NH2) it was 100%. The EC50 was 0.00728 nM on hGIPR (setting [2]); greater than 9950 nM at hGCGR (setting [2]); greater than 9950 nM on hGCGR (setting [3]); 0.0781 nM on hGLP-1R (setting [2]); 13.1 nM on hGLP-1R (setting [3]).

In the case of `CCCCCCCCCCCC(=O)N[C@@H](CCC(=O)NCCOCCOCC(=O)NCCOCCOCC(=O)NCCCC[C@H](NC(=O)CNC(=O)CNC(=O)[C@H](CCC(=O)O)NC(=O)[C@@H](NC(=O)[C@H](CC(C)C)NC(=O)[C@](C)(Cc1ccc(O)cc1)NC(=O)[C@@H](CCC(=O)O)NC(=O)[C@@H](NC(=O)[C@](C)(Cc1ccccc1)NC(=O)[C@H](CCC(=O)O)NC(=O)C(C)(C)NC(=O)[C@H](CCC(N)=O)NC(=O)[C@H](C)NC(=O)[C@H](CCCCNC(=O)COCCOCCNC(=O)COCCOCCNC(=O)CC[C@H](NC(=O)CCCCCCCCCCC)C(=O)O)NC(=O)[C@H](CCCN)NC(=O)[C@H](CC(=O)O)NC(=O)[C@H](CC(C)C)NC(=O)[C@](C)(CC(C)C)NC(=O)[C@@H](NC(=O)[C@H](CO)NC(=O)[C@H](Cc1ccncc1)NC(=O)[C@H](CC(=O)O)NC(=O)[C@H](CO)NC(=O)[C@@H](NC(=O)[C@](C)(Cc1ccccc1)NC(=O)[C@@H](NC(=O)CNC(=O)[C@H](CCC(=O)O)NC(=O)C(C)(C)NC(=O)[C@@H](N)Cc1ccc(O)cc1)[C@@H](C)O)[C@@H](C)O)[C@@H](C)CC)[C@@H](C)CC)[C@@H](C)CC)C(=O)N[C@@H](CO)C(=O)N[C@@H](CO)C(=O)NCC(=O)N[C@@H](C)C(=O)N1CCC[C@H]1C(=O)N1CCC[C@H]1C(=O)N1CCC[C@H]1C(=O)N[C@@H](CO)C(N)=O)C(=O)O` [Example 173], the EC50 on hGIPR (setting [4]) is 1.24 nM; at hGIPR (setting [7]) it was 0.0155 nM; at hGCGR (setting [4]) it was greater than 9950 nM; at hGCGR (setting [7]), greater than 9950 nM; on hGLP-1R (setting [4]) it was 29.7 nM; on hGLP-1R (setting [7]) it was 0.343 nM. The Emax at hGIPR (setting [5]) was found to be 92.9 ± 6.91%; on hGIPR (setting [6]), 87.8 ± 6.22%; at hGLP-1R (HEK293, percent of maximal response to GLP-1(7-36)NH2, 37° C., 0.1% bovine casein, arithmetic mean), 89.9 ± 2.72%.

On to `CC[C@H](C)[C@H](NC(=O)[C@H](CC(C)C)NC(=O)[C@](C)(Cc1ccc(O)cc1)NC(=O)[C@@H](CCC(=O)O)NC(=O)[C@@H](NC(=O)[C@H](Cc1cccc2ccccc12)NC(=O)[C@H](CCC(=O)O)NC(=O)C(C)(C)NC(=O)[C@H](CCC(N)=O)NC(=O)[C@H](C)NC(=O)[C@H](CCCCNC(=O)COCCOCCNC(=O)COCCOCCNC(=O)CC[C@H](NC(=O)CCCCCCCCCCCCC(=O)O)C(=O)O)NC(=O)[C@H](CCCN)NC(=O)[C@H](CC(=O)O)NC(=O)[C@H](CC(C)C)NC(=O)[C@](C)(CC(C)C)NC(=O)[C@@H](NC(=O)[C@H](CO)NC(=O)[C@H](Cc1ccncc1)NC(=O)[C@H](CC(=O)O)NC(=O)[C@H](CO)NC(=O)[C@@H](NC(=O)[C@](C)(Cc1ccccc1F)NC(=O)[C@@H](NC(=O)CNC(=O)[C@H](CCC(=O)O)NC(=O)C(C)(C)NC(=O)[C@@H](N)Cc1ccc(O)cc1)[C@@H](C)O)[C@@H](C)O)[C@@H](C)CC)[C@@H](C)CC)C(=O)N[C@@H](CCC(=O)O)C(=O)NCC(=O)NCC(=O)N[C@@H](CCCCNC(=O)COCCOCCNC(=O)COCCOCCNC(=O)CC[C@H](NC(=O)CCCCCCCCCCCCC(=O)O)C(=O)O)C(=O)N[C@@H](CO)C(=O)N[C@@H](CO)C(=O)NCC(=O)N[C@@H](C)C(=O)N1CCC[C@H]1C(=O)N1CCC[C@H]1C(=O)N1CCC[C@H]1C(=O)N[C@@H](CO)C(N)=O` [Example 66], for which the Emax on hGIPR (setting [5]) stood at 90.6 ± 3.37%; at hGIPR (setting [6]), 93.5 ± 1.39%; at hGLP-1R (HEK293, 0.1% bovine casein and 1.0% human serum albumin, 37° C., percent of maximal response to GLP-1(7-36)NH2) it was 93 ± 2.36%. Also, the EC50 at hGIPR (setting [7]) is 0.0168 nM; on hGCGR (setting [4]), greater than 9950 nM; on hGCGR (setting [7]) it was greater than 9950 nM; at hGLP-1R (setting [4]), 27 nM.
